This note sets out measurements from the METLIN SMRT retention time set (Domingo-Almenara et al. 2019).

Each structure is given as a SMILES string.

The series in a line: gradient 5% acetonitrile 3 min, to 50% in 2 min, to 85% in 15 min, held 3 min, 100 µL/min. Particulars: column: Zorbax Extend-C18 2.1 x 50 mm; eluents: water / acetonitrile, 0.1% formic acid. The procedure, abridged: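 Standards, all pure, were combined into mixtures of ~100 molecules and run at 100 μL/min on a Zorbax Extend-C18 column (2.1 × 50 mm, 1.8 μm) with water and acetonitrile, each containing 0.1% formic acid. A coupled quadrupole time-of-flight mass spectrometer operated in positive and negative ionization mode. Retention time values come from computationally picked adduct peaks, each inspected manually.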
Turning to `Cc1ccc(-n2ccc(=O)c(-c3nc(-c4cccc(F)c4)no3)n2)cc1`, the RP-LC retention time worked out at 928 s.
`CC(C)N(C(=O)Cn1c(C2CC(=O)N(C(C)(C)C)C2)nc2ccccc21)c1ccccc1` (stereo unspecified) gave an RP-LC retention time of 702 s.
Next, `COc1ccc(C(=O)Nc2cnn(C)c(=O)c2N2CCOCC2)cc1Cl`: 784 s; `CC(C)n1cnc2ccc(-c3noc(COc4ccc(F)cc4)n3)cc21`: 783 s; `CCOc1ccc(NC(=O)c2cn(C)nc2S(=O)(=O)N2CCC(C)CC2)cc1`: 1060 s.
The value for `COCCN1CCn2cc(S(=O)(=O)Nc3ccc(F)cc3Cl)cc2C1=O` was 725 s; that for `COc1ccc2nc(N3CCC(C(=O)N4CCN(c5ccccn5)CC4)CC3)sc2c1` was 578 s.
Next, `CCn1cc(-c2ccccc2)cc1C(=O)NCc1ccccn1`: 703 s; `CCCCN(CC)c1nc(C)nc2c1c(C)cn2-c1c(C)cc(C)cc1C`: 945 s.
In the case of `Cc1cccc(NC(=O)Cn2ccc3ccn(C)c3c2=O)c1`, the RP-LC retention time was determined as 772 s.
The value for `Cc1cc2[nH]c(C(=O)Nc3ccc(F)cc3)c(CN3CCOCC3)c2s1` was 666 s; that for `CCOc1ccc(-c2cc3c(=O)n(Cc4nc(-c5ccc(Cl)cc5)no4)ncn3n2)cc1` was 1140 s.
As to `CCC(=O)N1c2ccc(S(=O)(=O)CCC(=O)NCc3ccc(N(C)C)cc3)cc2CC1C` (stereo unspecified), the RP-LC retention time stood at 617 s.
The value for `COc1ccccc1OCC(=O)NCC1(c2cccs2)CCCC1` was 557 s; that for `CCc1nc(-c2ccc3c(c2)CCN3C(=O)Cc2ccc(OC)cc2)no1` was 1040 s.
For the compound `Cc1nc(-c2csc(S(=O)(=O)N3CCCC(C(=O)NCCc4ccc(Cl)cc4)C3)c2)no1` (stereo unspecified), the RP-LC retention time is 982 s.
Take `CCC(C)n1c(=O)c2ccccc2n(Cc2nc(-c3cccc(C(F)(F)F)c3)no2)c1=O` (stereo unspecified): the RP-LC retention time stood at 1300 s.
In turn, `Cc1ccc(-c2csc(Nc3ccc(Br)cn3)n2)c(C)c1` had an RP-LC retention time of 1330 s.
The value for `CCN1CCN(c2nc3cc(C(=O)OC)ccc3c(=O)n2-c2ccc3c(c2)OCO3)CC1` was 648 s; that for `Cc1cccc2nnc(N3CCCC(C(=O)NCc4cccs4)C3)n12` (stereo unspecified) was 659 s.
The value for `O=C1NCCN2CC3(CCN(C(=O)Nc4ccccc4)CC3)CC12` (stereo unspecified) was 570 s; that for `CCc1ccc(OCC(=O)Nc2nnc(C3CC(=O)N(c4ccccc4)C3)o2)cc1` (stereo unspecified) was 799 s.
`CCc1ccc(C(=O)Nc2ccc3c(c2)Sc2ncccc2C(=O)N3C)cc1` gave an RP-LC retention time of 818 s.
Next, `CN(C)CCNC(=O)c1ccc(CS(=O)c2ccc(Cl)cc2)o1` (stereo unspecified): 591 s; `CCN1c2cc(C(N)=O)ccc2C(=O)N2CCCCCC21` (stereo unspecified): 649 s; `Cc1ccc(NC(=O)C2CCCN2S(=O)(=O)c2cc3c(cc2C)NC(=O)C(C)O3)cc1` (stereo unspecified): 794 s.
Next, `CCNC(=O)c1ccc(-c2csc(C3CC3)n2)cc1`: 796 s; `COC(=O)C1=CN(C2CC2)c2cc(N3CCN(C(C)C)CC3)c(F)cc2S1(=O)=O`: 740 s.
Next, `O=C(Cc1cccc(F)c1)N1CCOc2ccccc2C1`: 844 s; `CCN1CCN(c2cc(C)c3cc(NC(=S)NCc4cc(OC)ccc4OC)ccc3n2)CC1`: 598 s.
In turn, `CC(C)NC(=O)C1CCN(C(=O)c2ncn3c2COC(c2ccc(Cl)cc2)C3)CC1` (stereo unspecified) registered an RP-LC retention time of 679 s.
Consider `CCc1nc(-c2ccc(OC3CCN(CCc4ccccc4)C3)cc2)no1` (stereo unspecified), for which the RP-LC retention time worked out at 744 s.
`COc1cc2c(Oc3ccc(NC(=O)C4(C(=O)Nc5ccc(F)cc5)CC4)cc3F)ccnc2cc1OCCCN1CCOCC1`: the RP-LC retention time came to 670 s.
Next, `CCN1CCC(N(Cc2cccs2)C(=O)Nc2ccccc2Br)CC1`: 679 s; `Cc1ccc(Nc2cc(C)nc(N3CCN(C(=O)Nc4cccc(C)c4)CC3)n2)cc1`: 1460 s.
In turn, `CCCn1ccc2sc(C)c(C(=O)N3CCN(c4ccccc4F)CC3)c2c1=O` gave an RP-LC retention time of 916 s.
Take `CCN(CC)C(=O)c1cnc2snc(C)c2c1N1CCC(C(=O)Nc2c(C)cc(C)cc2C)CC1`: the RP-LC retention time amounted to 901 s.
Compound `O=C(NCC1CCS(=O)(=O)C1)c1ccc2nsnc2c1` (stereo unspecified) came in with an RP-LC retention time of 609 s.
As for `COc1cccc(-c2csc(-c3nnn(-c4ccc(C)c(C)c4)c3N)n2)c1`, the RP-LC retention time amounted to 1170 s.
The value for `O=S(=O)(c1ccccc1)N1CCC(c2noc(-c3cccc(F)c3)n2)CC1` was 1110 s.
`COC(=O)c1cccc(C(=O)Nc2cc(Cl)ccc2C)n1` gave an RP-LC retention time of 999 s.
Next, `CNC(=O)N1CC(c2nc(-c3ccc(F)cc3)no2)C2(CCOCC2)C1` (stereo unspecified): 723 s.
Consider `COc1ccc(C)cc1NC(=O)N1CCC(c2nc(C(=O)N3CCCC3)c(C)o2)CC1`, for which the RP-LC retention time was 865 s.
The value for `O=S(=O)(c1ccc(C2CCCCC2)cc1)N1CCOCC1` was 1050 s.
The value for `COc1ccc(NC(=O)C2CCN(S(=O)(=O)c3cc(-c4noc(C)n4)cs3)CC2)cc1` was 871 s; that for `CC12CC(c3ccccc3O1)C(C(=O)Nc1cccc(C(F)(F)F)c1)C(=O)N2` (stereo unspecified) was 897 s; that for `CC1=C(C#N)C(C)(C)C(C#N)=C(C)N1` was 804 s.
Next, `Fc1cccc(-c2nc(-c3ccc4nncn4c3)no2)c1`: 813 s; `CCc1nc2c(NC(=O)CC3CCCCC3)cccn2n1`: 960 s; `CC(=O)N1CCCc2cc(S(N)(=O)=O)ccc21`: 559 s.
On to `O=C(Nc1ccc2c(c1)C(=O)Nc1ccccc1O2)NC1CCCCC1`, for which the RP-LC retention time was 776 s.
The compound `O=C(NCCC1=CCCCC1)c1c(OCC2CC2)cc(=O)n2c1CCCCC2` showed an RP-LC retention time of 887 s.
`Cn1c(=O)c2c(ncn2CC(=O)Nc2nccs2)n(C)c1=O` gave an RP-LC retention time of 576 s.
Next, `O=C(O)c1cnc(-c2ccc(F)cc2)nc1-c1ccncc1`: 690 s.
The value for `Cc1noc(C)c1CC(=O)N1CCC2(CC1)C(=O)N(C)c1ccccc12` was 720 s.
Next, `Cn1c(C(=O)NC2CCCCCC2)cc2sc(Cl)cc21`: 1200 s.
In turn, `COc1ccccc1-c1nnc2sc(-c3cc(CC(C)C)[nH]n3)nn12` gave an RP-LC retention time of 891 s.
Next, `O=C(Nc1ccc2cn[nH]c2c1)C1CC1`: 608 s.
`Cc1nc(OCC(=O)Nc2ccc(F)cc2F)c2ccccc2n1` had an RP-LC retention time of 742 s.
The compound `Cc1cccc(N2CCN(C(=O)c3cc(C4CC4)[nH]n3)CC2)c1C` gave an RP-LC retention time of 921 s.
Next, `CC(C)(C)c1ccc2c(c1)OCC(=O)N2Cc1nc(-c2ccc3c(c2)OCO3)no1`: 1200 s.
